Reference: US20260273081A1, “INHIBITORS OF ETS2-ACTIVATING MOLECULES FOR THE TREATMENT OF INFLAMMATORY DISEASES” (The Francis Crick Institute Limited, priority 2023, published 2026)

Columns and labels:
ETS2 = assay: CRISPR-Cas9 editing efficiency at the ETS2 locus in primary monocytes; type: cell-based, human; conditions: Cas9 RNPs nucleofected into primary monocytes; ICE analysis
Procedure: (§1) gRNA sequences were designed using CRISPick (formerly GPP sgRNA Designer) and synthesised by IDT. gRNA sequences: chr21q22 5′ gRNA, […]; chr21q22 3′ gRNA, […]; ETS2 gRNA1, […]; ETS2 gRNA2, […]. Alt-R CRISPR-Cas9 Negative Control crRNA #1 (IDT) was used as a non-targeting control. Cas9-gRNA ribonucleoproteins were assembled as described previously and nucleofected into 5×10^6 monocytes in 100 μL nucleofection buffer (Human Monocyte Nucleofection Kit, Lonza) using a Nucleofector 2b (Lonza, program Y-001). After nucleofection, monocytes were immediately transferred into 5 ml of pre-warmed culture media in a 6-well flat-bottomed plate, and differentiated into macrophages under TPP conditions. Editing efficiency was quantified by PCR amplification of the target region in extracted DNA (chr21q22_Fw primer, […]; chr21q22_Rv, […]; ETS2_g1_Fw, […]; ETS2_g1_Rv, […]; ETS2_g2_Fw, […]; ETS2_g2_Rv, […]). Editing efficiency at the chr21q22 locus was measured via quantification of amplified fragments (2100 Bioanalyzer, Agilent) as previously described. Editing efficiency for individual gRNAs was assessed using the Inference of CRISPR Edits tool (ICE, Synthego).

macrophages = assay: Viability and myeloid markers of macrophages after nucleofection with Cas9 RNPs and TPP differentiation; type: cell-based, human; conditions: TPP differentiation
Procedure: as §1
Expression of myeloid markers was assessed by flow cytometry (BD LSRFortessaTMX-20). […] Data were analysed using FlowJo v10 (BD Biosciences).

[1] = tested on: intestinal mucosal biopsies from patients with active IBD; assay: Human gut explant model: IBD intestinal mucosal biopsies cultured on transwell insert; type: cell-based; conditions: 18 hours culture; for release of IBD-associated inflammatory cytokines from biopsies: PD-0325901 0.5 μM or infliximab 10 µg/ml, vs DMSO, n=10
Procedure: During colonoscopy, intestinal mucosal biopsies (6 per donor) were collected from 10 IBD patients (7 ulcerative colitis, 3 Crohn's disease). All had endoscopically active disease and were not receiving immunosuppressive or biologic therapies. All biopsies were collected from a single inflamed site. All patients provided written informed consent. Ethical approval was provided by the London-Brent Regional Ethics Committee (REC: 21/LO/0682). Biopsies were collected into Opti-MEM and within 1 hour were weighed and placed in pairs onto a transwell insert (ThermoFisher)—designed to create an air-liquid interface70—in a 24-well plate. Each well contained 1 ml media and was supplemented with either DMSO (vehicle control), PD-0325901 (0.5 μM) or infliximab ([…]; MSD). Media: Opti-MEM I (Gibco); GlutaMAX (ThermoFisher): 10% FBS (ThermoFisher), MEM Non-Essential Amino Acids (ThermoFisher); 1% sodium pyruvate (ThermoFisher); 1% penicillin/streptomycin (ThermoFisher); 500 µg/ml gentamicin (Merck). After 18 hours, supernatants and biopsies were snap frozen. Supernatant cytokine concentrations were quantified using LEGENDplex Human Inflammation Panel (Biolegend). RNA was extracted from biopsies and libraries prepared as described earlier (n=9, RNA from one donor was too degraded). Sequencing was performed on a NovaSeq 6000 (100 bp, PE reads). Data were processed as described earlier and GSVA was performed for ETS2-regulated genes and biopsy-derived signatures of IBD-associated inflammation.

[2] = tested on: inflammatory macrophages (TPP); assay: MEK inhibitor (PD-0325901) testing in inflammatory macrophages (TPP), RNA-seq and fGSEA; type: cell-based, human
Procedure: Leukocyte cones from healthy donors were obtained from NHS Blood and Transplant (Cambridge Blood Donor Centre, Colindale Blood Centre, or Tooting Blood Donor Centre). Peripheral blood mononuclear cells (PBMCs) were isolated by density centrifugation (Histopaque 1077, Sigma) and monocytes were positively selected using CD14 Microbeads (Miltenyi Biotec). Macrophage differentiation was performed using conditions that model chronic inflammation (TPP): 3 days GM-CSF (50 ng/ml, Peprotech) followed by 3 days GM-CSF, TNFα (50 ng/ml, Peprotech), PGE2 (1 μg/ml, Sigma Aldrich), and […] (1 μg/ml, Invivogen). […]
RNA was isolated from macrophage lysates (AllPrep DNA/RNA Micro Kit, Qiagen) and sequencing libraries prepared from 10 ng RNA using the SMARTer Stranded Total RNA-Seq Kit v2-Pico Input Mammalian (Takara) following the manufacturer's instructions. Libraries were sequenced on a NextSeq2000 (50 bp, PE reads: CRISPR-based loss-of-function, roxadustat and PD-0325901 experiments) or a NovaSeq6000 (100 bp, PE reads: overexpression experiments). Reads were trimmed using Trim Galore (Phred score 24), filtered to remove reads <20 bp, and ribosomal reads were removed using the BBSplit function of BBMap (BBMap, sourceforge.net/projects/bbmap/) with the Human ribosomal DNA complete repeating unit (GenBank: U13369.1). […]

## gRNA2: ETS2 guide RNA, UUGCUGCACGGGGUUAACAA, delivered as Cas9 RNP (delivered as Cas9 ribonucleoprotein complex, further chemistry not given here)
ETS2
  editing efficiency at the ETS2 locus, mean indel rate: 78.6%
macrophages
  viability of macrophages following nucleofection with Cas9 RNPs and differentiation, mean: 98.6%

## infliximab
[1]
  release of IBD-associated inflammatory cytokines from biopsies: comparable levels

## O=C(NOC[C@H](O)CO)c1ccc(F)c(F)c1Nc1ccc(I)cc1F [PD-0325901]
[2]; PD-0325901 0.5 μM added day 4, harvested day 6, vs vehicle (DMSO), n=3
  anti-inflammatory activity (relative expression of chr21q22-regulated genes), phenocopying ETS2 disruption or chr21q22 enhancer deletion: potent anti-inflammatory activity
[2]; PD-0325901 0.5 μM, day 4 to day 6, vs vehicle
  inflammatory pathways (fGSEA, Gene Ontology Biological Pathways): downregulation of multiple inflammatory pathways
[1]
  release of IBD-associated inflammatory cytokines from biopsies: significantly reduced
[1]; PD-0325901 0.5 μM, n=9
  expression of ETS2-regulated genes in IBD biopsies (GSVA): reduced
  validated transcriptional inflammation score (bMIS, GSVA): significant improvement

## gRNA1: ETS2 guide RNA, CAGACACAGAAUUACCCCAA, delivered as Cas9 RNP (delivered as Cas9 ribonucleoprotein complex, further chemistry not given here)
ETS2
  editing efficiency at the ETS2 locus, mean indel rate: 89.7%
macrophages
  viability of macrophages following nucleofection with Cas9 RNPs and differentiation, mean: 98.3%
